# Experiments:
# [1] = tested on: Erythrocin-resistant strain C. difficile LCN 0081; experiment: MIC by broth dilution method (CLSI M11-A7); format: cell-based; conditions: Clostridioides difficile, read-out: Sensitivity of C. difficile (MIC)
# [2] = tested on: Reduced-sensitivity strain to Vancomycin C. difficile LCN 0012; experiment: MIC by broth dilution method (CLSI M11-A7); format: cell-based; conditions: Clostridioides difficile
# [3] = tested on: clinically isolated strain LCN 001; experiment: MIC by broth dilution method (CLSI M11-A7); format: cell-based; conditions: Clostridioides difficile, LCN001, read-out: Sensitivity of C. difficile (MIC)
# [4] = tested on: Reduced-sensitivity strain to Metronidazole C. difficile LCN 0048; experiment: MIC by broth dilution method (CLSI M11-A7); format: cell-based; conditions: Clostridioides difficile
# [5] = tested on: Clindamycin-resistant strain C. difficile LCN 0027; experiment: MIC by broth dilution method (CLSI M11-A7); format: cell-based; conditions: Clostridioides difficile, read-out: Sensitivity of C. difficile (MIC)
# C. difficile ATCC 9689 = experiment: MIC by broth dilution method (CLSI M11-A7); format: cell-based; conditions: Clostridioides difficile, ATCC9689, read-out: Sensitivity of C. difficile (MIC)
# [6] = Pharmacokinetics of thiopeptcin after oral (intragastric) administration, plasma by LC-MS/MS; format: in vivo; conditions: after intragastric administration in rats, all doses and time points
# Protocol: 30 μl of blood or urine sample was added into 90 μl of methanol containing 5 ng/ml verapamil. After vortexing for 3 min and centrifuging at 14,000 rpm for 5 min, 80 μl of supernatant was taken for LC-MS/MS analysis.
# Conditions for LC were as follows: • Column: Waters Symmetry 300 C18 3.5 μm 2.1*100 mm; • Mobile phase A: 10 mM ammonium acetate+0.02% aqueous ammonia solution; mobile phase B: methanol; • Duration of analysis: 5.2 min; injection volume: 5 μL; column temperature: 25° C.; gradient elution:
# Conditions for MS/MS analysis were as follows: • Mass Spectrometer: Positive Ion Mode (Agilent 6460B) • Detection of ion pairs: Thiopeptcin: 1437.3-172.0, fragment=135, CE=22; • Verapamil (internal standard): 455.2→165.1, fragment=135, CE=25; • Mass spectrometry parameters: gas temp at 350 ° C.; gas flow at 10 L/min; nebulizer of 40 psi; sheath gas flow at 10 L/min and sheath gas heater at 400° C.
# Preparation of thiopeptcin: Certain amount of thiopeptcin was dissolved in a mixed solvent of pH 5.0 containing 10% PEG400, 1% Tween 80 and 5 mg/ml citric acid. The solution was shaken to be clear for intragastric administration.
# Male rats were divided into 4 groups with high, medium, and low doses according to experimental purposes. The high dose group was 50 mg/kg, the middle dose group was 25 mg/kg, the low-1 dose group was 5 mg/kg and the low-2 dose group was 1 mg/kg. […]
plasma concentration of thiopeptcin (below limit of quantification) [6],Structure (SMILES),MIC [1],MIC [2],MIC [3],MIC [4],MIC [5],MIC (C. difficile ATCC 9689)
–,"CN[C@H](CC(C)C)C(=O)N[C@H]1C(=O)N[C@@H](CC(N)=O)C(=O)N[C@H]2C(=O)N[C@H]3C(=O)N[C@H](C(=O)N[C@H](C(=O)O)c4cc(O)cc(O)c4-c4cc3ccc4O)[C@H](O)c3ccc(c(Cl)c3)Oc3cc2cc(c3O[C@@H]2O[C@H](CO)[C@@H](O)[C@H](O)[C@H]2O[C@H]2C[C@](C)(N)[C@H](O)[C@H](C)O2)Oc2ccc(cc2Cl)[C@H]1O [Vancomycin, reference compound]",1.5 µg/mL,4 to 8 µg/mL,0.5 µg/mL,0.8 to 3 µg/mL,1.5 µg/mL,0.25 µg/mL
< 1 ng/mL,C=C(NC(=O)c1csc(-c2nc3c(cc2O)-c2nc(cs2)C(=O)N[C@@H]([C@@H](C)O)C(=O)N/C(=C(\C)OC)c2nc(cs2)C(=O)N[C@@H]2c4nc(cs4)C(=O)N[C@@H](COC(=O)c4c5c6c(cccc6n4O)COC(=O)[C@@H](OC4C[C@](C)(O)[C@H](N(C)C)[C@H](C)O4)C2OC5)c2nc-3cs2)n1)C(N)=O (stereo partly shown) [Thiopeptcin],0.005 µg/mL,0.025 to 0.05 µg/mL,0.025 µg/mL,0.005 to 0.01 µg/mL,0.025 µg/mL,0.005 µg/mL

# Reference: patent publication US20190231844A1, “ORAL APPLICATION OF THIOPEPTCIN” (NANJING BIOTICA PHARMACEUTICAL COMPANY, priority 2015, published 2019)
